Source: the NIST ThermoML archive (doi:10.1021/je0602465)
“And” between values parts separate entries of the source, which are not always exact repeats. Equal entries are not always repeated.

Conditions: Liquid; for vapor or sublimation pressure: low residence time flow method

Oc1cccc(O)c1 [1,3-benzenediol]
Conditions | Critical pressure [kPa] | Critical temperature [K] | vapor or sublimation pressure [kPa]
546.7 K | – | – | 84.54
582.6 K | – | – | 192.6
631.7 K | – | – | 494.8
675.9 K | – | – | 994.4
728.6 K | – | – | 1994
790.6 K | – | – | 3994
813.7 K | – | – | 4999
831.3 K | – | – | 5995
Low residence time flow calorimetry | 6240 | – | –
Low residence time flow method | – | 836 | –

Oc1ccccc1O [1,2-benzenediol]
Conditions | vapor or sublimation pressure
511.3 K | 81.47 kPa
535.7 K | 147 kPa
547 K | 187.4 kPa
577.6 K | 349.1 kPa
595.6 K | 487.9 kPa
597.3 K | 499.4 kPa
621.8 K | 742.9 kPa
640.1 K | 988.9 kPa
640.9 K | 992.8 kPa
692.7 K | 1996 kPa and 1995 kPa
711.5 K | 2496 kPa
727.5 K | 2993 kPa
727.9 K | 2997 kPa
753.5 K | 4007 kPa
754.8 K | 3993 kPa

C1CNCCN1 [piperazine]
Conditions | Critical pressure [kPa] | Critical temperature [K] | vapor or sublimation pressure [kPa]
445.2 K | – | – | 189.5
471.6 K | – | – | 343.6
488.9 K | – | – | 492.3
528.1 K | – | – | 992.6
573.6 K | – | – | 1994
629.7 K | – | – | 3997
649.3 K | – | – | 4994
653.7 K | – | – | 5243
655 K | – | – | 5348
Low residence time flow calorimetry | 5420 | 656.3 | –

OCCCCCCO [1,6-hexanediol]
Conditions | Critical pressure [kPa] | Critical temperature [K] | vapor or sublimation pressure [kPa]
523.2 K | – | – | 93.33
552.8 K | – | – | 199.3
597.1 K | – | – | 500.6
637.1 K | – | – | 1001
685.1 K | – | – | 2007
717.6 K | – | – | 3024
740 K | – | – | 4012
740.4 K | – | – | 4054
Low residence time flow calorimetry | 4080 | – | –
Low residence time flow method | – | 740.8 | –
